From patent US20250320254A1, “Compositions and Methods for Modulating Circulating Factors” (Flagship Pioneering Innovations VII, LLC, priority 2022, published 2025)
No end group written: not given here.

Tested on: human primary hepatocytes
Test: LDL uptake assay (BODIPY-labelled LDL, high content imaging)
Type: cell-based
Details: 5 uM concentration, 4 h
Protocol: The effects of putative cholesterol lowering peptides was assessed using LDL uptake assays in primary human hepatocytes from a pool of 10 healthy donors. Hepatocytes were treated with peptides as well as LDL-labelled BODIPY for 4 h. Cells were then fixed, permeabilized and imaged on an Opera Phenix high content imaging platform. LDL uptake was determined using BODIPY stain intensity.
Human primary hepatocytes were seeded into 96-well PhenoVue plates at 37K/well density and recovered overnight. The next say, hepatocytes were treated with 5 uM peptide or null control (DMSO) as well as a BODIPY-labelled LDL (Invitrogen™ Image-iT™ Low Density Lipoprotein Uptake Kit, Bodipy FL, I34359). This assay is designed to specifically detect binding and uptake of LDL through the LDL receptor internalization pathway, allowing maximum control and flexibility in experimental design. Two controls were built into the system, unlabeled LDL and heparin. Unlabeled LDL provides an optional pre-treatment to occlude cell surface receptors in advance of probing with the labeled construct, while heparin is provided as an additional control to chelate the LDL in the solution phase outside of the cells, thus preventing binding and uptake of the labeled LDL. Metformin, a type 2 diabetes drug with cholesterol lowering effects, was used as a positive control for increased LDL uptake (FIG. 1). Following peptide, control, and LDL-BODIPY treatment, cells were incubated for 4 h in a 37 C incubator with 5% CO2. Following incubation, cells were fixed with 4% paraformaldehyde for 15 min. Cells were then permeabilized and stained with DAPI to visualize nuclei. Wells were then washed with HBSS and imaged using a Perkin Elmer Opera Phenix high content imaging platform (fluorescence) at 20× magnification with 9 fields per well. BODIPY spot intensity was quantified using the Harmony image analysis software.

Sequence	LDL uptake in hepatocytes
LVVRWAVLVFRSSTAALPRAAEAARRSEKWPKTSALGRRS [SEQ ID NO: 26888]	increasing LDL uptake
MMLPLWTFLERAMLLLISEVANRFKWSNGYTWKMPKA [SEQ ID NO: 36277]	increasing LDL uptake
MTAAVSLTRSPAISASCAASRSASPWAWPWTWF [SEQ ID NO: 75353]	increasing LDL uptake
